Reference: paper PMC7395176, “Retromer stabilization results in neuroprotection in a model of Amyotrophic Lateral Sclerosis” (Nature Communications, 2020)

Key:
VPS26b = assay: Western blot for VPS26b in treated Neuro2a cells; assay type: cell-based; settings: 10 µM, 48 h, WB
Protocol: Compound 2a increases VPS26b and VPS29 in Neuro2a […]
a,WBs forVPS26b, VPS29 and β-Tubulin in vehicle- and compound 2a-treated Neuro2a cells(10 μM, 48h, 3x10^5 cells/well).Quantitative analyses of blots (means ± SD) are shown inhistograms (control:n=4 independent wells, 2a: n=5 independent wells examined in one experiment, p<0.0001 for all the comparisons. Two-tailed Student’s test was used to determine the statisticalsignificanceof data, ***p<0.0001
(1 picture or pasted object on this page, not shown here)

VPS26 = VPS26 / VPS26b levels in MNs and lumbar SC of treated G93A mice; assay type: in vivo; settings: 10 mg/kg, day 100
[1] = tested on: SOD1^G93A-transfected Neuro2a cells; assay: LDH-Glo cytotoxicity assay in SOD1G93A-transfected Neuro2a cells; assay type: cell-based; settings: 10 µM
Text: Having observed a marked improvement of viability in SOD1^G93A-transfected Neuro2a cells with VPS35 gain of function, we investigated the effect of VPS35 loss of function. We transfected Neuro2a cells with RNAi plasmids encoding a siRNA duplex for VPS35, to knockdown VPS35 and disrupt the retromer assembly. […] By including Sh56 plasmids in the transfection mix, we worsened this phenotype (Fig. 3d). […] We next assayed cytotoxicity by measuring lactate dehydrogenase (LDH) release with a LDH-Glo™ cytotoxicity assay. Cells were treated with plasmids encoding SOD1^G93A and the Sh56-RNAi sequence with or without compound 2a, while supernatants were used to measure LDH contents. Overexpression of SOD1^G93A increased LDH release by Neuro2aA cells, when compared with control cells (Fig. 3e).
LDH cytotoxicity was run on 96-well plates using LDH-Glo™ Cytotoxicity Assay (Promega). Briefly, Neuro2a cells were transfected with plasmids encoding pCMV-LacZ; pcDNA3.1(+)SOD1G93A[77] with or without VPS35 short interfering plasmids (Sh56) or compound 2a (10 µM). […] In each experiment we calculated %cytotoxicity=Exp.LDHrelease−mediumbackground/MaxLDHreleasecontrol−mediumbackground , and we run parallel positive controls treating cells with 200 µM H2O2. […]

G93A mice = assay: Daily treatment of G93A and WT mice, day 30 to day 100: tolerability, rotarod, histopathology; assay type: in vivo
Protocol: We administered compound 2a (10 mg/kg, i.p.) daily to G93A and WT littermates between day 30 and day 100. […] We next assessed the pathological degeneration of fibers in sciatic nerves of G93A mice treated with compound 2a. We observed axonal degeneration, with a substantial reduction of myelinated nerve fibers in vehicle-treated G93A mice (Fig. 5a, b)[39]. […] Using Luxol Fast Blue (LFB) to label lipoproteins of the myelin sheath, we analyzed myelination.
Mice were maintained under pathogen-free conditions at San Raffaele Hospital mouse facility (Milan, Italy). All efforts were made to minimize animal suffering and to reduce the number of mice used in accordance with the European Communities Council Directive of 24 November 1986 (86/609/EEC). The Ethics Review Committee approved experimental protocols according guidelines from the Italian Ministry of Health and from the Institutional Animal Care and Use Committee of the San Raffaele Scientific Institute (protocol number 704/2015PR). Transgenic mutant SOD1 mice carrying the SOD1^G93A allele (strain B6SJL-TgN[SOD1G93A]1GUR)[75] were purchased from Jackson laboratories, while C57BL/6J mice, used for breeding and experimental purposes, were purchased from Charles River (Italy). Both transgenic and WT mice had food and water freely available in the home-cage. The holding room was on a 12-h light–dark cycle, the temperature of the room was 22 ± 0.2 °C. Starting from day 30 we intraperitoneally injected compound 2a (10 mg/Kg) or vehicle in G93A mice as well as in C57BL/6J mice for 70 days. Additional experiments were performed injecting mice from day 83 to day 103. An operator blind to the treatment performed injections and manipulation of mice. At the day of the sacrifice, mice received an overdose of anesthetic drugs and they were perfused via vascular system with saline followed by 70–80 ml 4% paraformaldehyde (PF) in PBS, pH 7.2 (Sigma–Aldrich). Spinal cords were coronally sliced at ~6-mm thickness and postfixed in 4% PF in PBS, pH 7.2 for 12 h at +4 °C. Tissues were cryoprotected in PBS 1X/30% Sucrose (Sigma–Aldrich), embedded in OCT inclusion media and stored at −80 °C before processing. Lumbar spinal cords were 12-µm sectioned, labelled and digital images were acquired every 330 µm in a region encompassing 2.4 mm of the lumbar spinal cord. We determined numbers of mice by preliminary results or literature precedent.
Motor activity of mice receiving compound 2a or vehicle was assessed on 50-, 60-, 70-, 80-, 90-, and 100-days-old animals. Briefly, mice were trained 1 min on a static rotor and 1 min at constant speed (4 rpm) for two times and then we ran two trials performed over two consecutive days (one per day). Each trial consisted of 6-test sessions with 15 min interval between sessions. For each session, we placed mice on an accelerating rotor (4–40 rpm) and the latency to fall was recorded, with a maximum limit for individual animal set at 600 seconds.
Quantification of nerves degeneration was done on sciatic nerves obtained from saline-perfused mice. Tissues were fixed in 2% buffered glutaraldehyde (Sigma–Aldrich), postfixed in 1% osmium tetroxide and cut to obtain 1 µm thick sections. We stained sections with toluidine blue and specimens were blindly examined by light microscopy using ×40 objective. For each nerve, we merged images to obtain the entire nerve cross section. Five consecutive nonoverlapping semi-thin sections from each sample were analyzed with NHI-Image J software (US National Institutes of Health). Degenerating fibers were counted in the entire nerve cross section.
Quantification of myelin was done on sagittal sciatic nerves by Luxol fast blue (LFB). Briefly, nerve sections were incubated the ethanol series before receiving 0.1% LFB overnight at 60 °C. Sections were then incubated 5 min in 0.05% lithium carbonate before receiving the ethanol series and xylene. Bright field microcopy of nerves at ×63 was used for quantification. […]

## NC(N)=N/N=C/c1cccc(/C=N/N=C(N)N)c1 [compound 2a, phenyl-1,3-bis-guanylhydrazone]
VPS26b
  VPS26b protein levels: significantly increased
VPS26
  VPS26b levels in lumbar SC extracts (WB): increase VPS35 and VPS26b levels
[1]; Neuro2a transfected with SOD1G93A and Sh56 plasmids
  LDH release: high LDH release was observed
[1]; SOD1G93A-transfected Neuro2a, 48 h
  LDH release: significantly reduced LDH release
G93A mice; 10 mg/kg i.p. daily, day 30 to day 100
  distress or pain: did not observe distress or undesirable pain
G93A mice; G93A mice, 10 mg/kg i.p. daily, day 30 to day 100
  progression of motor deficits (latency to fall, rotarod): significantly slowed down
G93A mice; G93A mice, 10 mg/kg, day 100
  reduction of degenerating fibers in sciatic nerves: ~30%
G93A mice; G93A mice, 10 mg/kg, day 100, versus vehicle-treated G93A mice
  MNs in ventral horns of lumbar SCs: more MNs
G93A mice; SC ventral horn, G93A mice, 10 mg/kg, day 100, versus vehicle
  total number of Iba1+ cells: Neither CD14 levels nor the total number of Iba1^+ cells changed
G93A mice; WT and G93A mice, 10 mg/kg i.p. daily, day 30 to day 100
  body weight: slight, but not significant reduction of body weight
G93A mice; WT mice, 10 mg/kg i.p. daily, rotarod
  locomotion performances: did not observe alterations of locomotion performances
G93A mice; lumbar SCs, G93A mice, 10 mg/kg, day 100, versus vehicle
  CD14 levels: Neither CD14 levels nor the total number of Iba1^+ cells changed
G93A mice; sciatic nerves, G93A mice
  integrity of myelin (MBP, NF-M labelling): preserved the integrity of myelin
G93A mice; sciatic nerves, G93A mice, versus vehicle-treated G93A mice
  demyelination (Luxol Fast Blue): substantial reduction of demyelination
